For experiment [1], the system named is CFU-S. As to the kind of experiment: Spleen colony formation from RAMBS-treated bone marrow in lethally irradiated mice. Format: in vivo, (CBA×C57BL)F1 female mice. As to conditions: RAMBS-treated bone marrow + preparation, lethally irradiated mice. The text has this: (CBA×C57BL)F1 female mice (n=2500), 2-months old, weighing about 20 g, were used in the experiment.
As is known, there is a close relationship between T-cells and hemopoietic progenitors. It was shown that, along with colony-forming units of spleen (CFU-S), thymocytes participate in colony formation of spleens of irradiated mice by controlling proliferation of the hemopoietic progenitor cells. The fact was established in a test system, which allowed a selective removal of accessory T-cells from bone marrow with the help of rabbit antimouse brain antiserum (RAMBS) and their substitution with other factors. Aliquots (0.1 ml) of bone marrow suspension (2×10^7 cells), RAMBS, and medium 199 were mixed and incubated for 1 hour at 37° C. Then the cells were washed with centrifuging, resuspended and injected to lethally irradiated mice.
According to the aforesaid scheme, instead of thymocytes mice received the peptide, H-Ile-Glu-Trp-OH injections 30 minutes before the injections of RAMBS-treated bone marrow suspension.

Experiment [2] relates to Thymoma EL-4 cells. As to the kind of experiment: Thymoma EL-4 cells incubated with peptide and oxyurea, transplanted to mice: tumor growth and survival. It is filed as in vivo, C57B1 mice. The method, then:
The Thymoma EL-4 cells were extracted from the abdomen cavity of C57B1 mice at the 7th day after transplantation. The suspension was washed by centrifugation in the medium RPMI. Then the cells were resuspended in the growth medium (RPMI+10% of embryo serum+0.1% penicillin/streptomycin) and were split in culture flasks 5 ml each ([…] per flask). 2 mg of the preparation were added (20 μl) to each probe. After 18 hours of incubation (37 degrees Celsius CO2), OU was added to the half of probes (1 mg per 5 ml). Incubation was done for 1 more hour in the same conditions and then cells were washed out by centrifugation in the medium RPMI. The precipitated cells were resuspended in calculation 1 ml per 0.2 ml of RPMI medium and then transplanted to the mice C57B1 under the back skin.
The taking of the measurements of the size of the tumor was started after the knot became visible. The tumor was measured every day until it was impossible to measure. The survival ability of the mice was examined during 60 days after transplantation. Mice that survived after this period were considered to be cured. Each experimental group consisted of 6 animals.

For experiment [3], the system named is CFU-S-8 and CFU-S-12. As to the kind of experiment: Cytostatic (Cytosine-Arabinoside)-induced cytopenia: karyocytes, CFU-S-8, CFU-S-12 in bone marrow. It is filed as in vivo, mice. As to conditions: donor bone marrow; CA 20 mg/kg i.p. once; N 10 μg/kg once daily, three injections. Here is the method: Used as a cytostatic, Cytosine-Arabinoside (CA) was intraperitoneally injected to donor mice once in the dose of 20 mg/kg. The peptide was given according to the following scheme: 10 μg/kg once daily, three injections starting from the first hour after CA. Intact mice received H-Ile-Glu-Trp-OH in the same doses and according to the same schedule. On day 8 after the cytostatic injection, determined were karyocyte count in the donor bone marrow and the content of hemopoietic progenitors of different polipotencies: committed CFU-S-8 and CFU-S-12. CFU-8 are committed stem cells which later undergo differentiation. CFU-12 are the polypotent cells, from which stem cells can be recruited (i.e. they maintain the pool of stem cells). This is a slowly proliferating cell population, mainly in G phase. That is why it is important to evaluate the effect of a preparation on the pools of both committed (CFU-8) and polypotent (CFU- 12) cells. To this end, bone marrow was extracted from donor's femoral bones and injected to lethally irradiated recipients. After the cell injections, every test group was divided into 2 subgroups: some animals were killed on day 8, the other on day 12. Spleens were taken out and the colonies were counted. The tests were carried out on 105 mice.

Setting [4] is: 60 days after transplantation of treated EL-4 cells.

From patent publication US6159940A, “Method for modulating hemopoiesis” (Immunotech Developments Inc., priority 1999, dated 2000) come the findings set out here.

Where a SMILES comes first, the peptide text is derived from it.

Take `N[C@@H](CCC(=O)O)C(=O)N[C@@H](Cc1c[nH]c2ccccc12)C(=O)O` [Thymogen, H-Glu-Trp-OH, reference compound] (H-Glu-Trp-OH): the “Average Colony Count” value in experiment [1] was 2.9+/-0.3.
In the case of `NC(=O)NO` [OU, oxyurea, reference compound], in experiment [2] (setting [4]), the “% of Survival” value was found to be 0% and the “Number of Survived Mice From 6” value is reported as 0/6. For the same compound, the “delay in the tumor growth” value in experiment [2] (intact tumor cells treated with OU (FIG. 3)) was around 12 days. For the same compound, in experiment [2] (mice with Thymoma EL-4), the “increase in lifetime versus control” value came to 5 days.
On to `Nc1ccn([C@@H]2O[C@H](CO)[C@@H](O)[C@@H]2O)c(=O)n1` [CA, Cytosine-Arabinoside, reference compound], for which, in experiment [3], the “Day 8 COUNT CFU-S-8” value is recorded as 1270 ± 53, the “Day 8 COUNT CFU-S-12” value is 1244 ± 71 and the “Day 8 COUNT Karyocytes” value is 17.5 ± 0.8 × 10^6.
